Earlier results, collected in US20200289412A1, “BIOENHANCED SPIRULINA LOZENGE FORMULATION” (priority 2019, published 2020).

What was measured:
tumor cell = settings: time-dependent; not directly killing cancer cells
[1] = tested on: human immunodeficiency virus-1 virus (HIV-1)

Substance	tumor cell growth (tumor cell)	in vitro replication (influenza A virus)	in vitro replication (measles virus)	in vitro replication (mumps virus)	in vitro replication (human cytomegalovirus)	in vitro replication (Herpes simplex type I)	in vitro replication [1]
Spirulina polysaccharide [PSP]	inhibiting tumor cell growth	–	–	–	–	–	–
calcium spirulan [Ca-Sp]	–	inhibits the in vitro replication	inhibits the in vitro replication	inhibits the in vitro replication	inhibits the in vitro replication	inhibits the in vitro replication	inhibits the in vitro replication
